Measurements as given in paper PMC12447631 (Environmental science & technology, 2018).

Target: T1, MGS0156 (uncultured organism, UniProt A0A0G3FEJ8)
T1 sequence (A0A0G3FEJ8 75-421): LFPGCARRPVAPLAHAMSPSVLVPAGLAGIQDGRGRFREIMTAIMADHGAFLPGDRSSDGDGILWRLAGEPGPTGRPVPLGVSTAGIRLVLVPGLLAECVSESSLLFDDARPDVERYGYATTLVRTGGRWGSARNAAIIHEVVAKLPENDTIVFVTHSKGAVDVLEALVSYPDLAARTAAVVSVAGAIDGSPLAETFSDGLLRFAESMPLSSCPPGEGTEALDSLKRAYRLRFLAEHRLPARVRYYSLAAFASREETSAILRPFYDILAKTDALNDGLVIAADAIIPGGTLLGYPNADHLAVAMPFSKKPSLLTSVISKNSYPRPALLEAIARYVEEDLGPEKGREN
Test: spectrophotometric pNP ester hydrolysis
Type: biochemical
Conditions: 0.5 mM substrate, 50 mM HEPES-K pH 8.0, 30 °C

**Q.** `CCCCCCCC(=O)Oc1ccc([N+](=O)[O-])cc1` [pNP-octanoate] was tested. Which specific activity did it give?
**A.** MGS0156 was most active against pNP -octanoate and pNP -decanoate (C8–C10 substrates)
